Tested on: 616215-338-R-J1-PDC complex spheroids, viability % test/control
Assay: Anticancer human tumor 616215-338-R-J1-PDC patient-derived colon adenocarcinoma cell line growth inhibition [CLK]
Conditions: for IC50: curve of first compound; for viability, T/C: stronger effect = lower value; active means viability on the fitted dose curve at most 10% of control; inactive means the rest
Text: A high-throughput screen of multi-cell type tumor spheroids was designed to identify active combinations of […] and targeted small molecules. Complex spheroids include a stromal component modeled by human endothelial cells (HUVEC) and fibroblasts modeled by human mesenchymal stem cells (MSCs). The concentration ranges selected for each drug and investigational agent were based upon clinically achievable concentrations if the clinical Cmax of the agent was known.
Compounds. The drugs and investigational agents: cirtuvivint (SM08502; NSC835563), CC-671 (NSC850746), vemurafenib (NSC761431), tapotoclax (NSC804041), sotorasib (NSC818433), adagrasib (NSC831453), MRTX-1133 (NSC836407), BAY2416964 (NSC825713), copanlisib (NSC816437), inavolisib (NSC800729), abemaciclib (NSC768073), osimertinib (NSC779217), entinostat (NSC756642), eltanexor (KPT-8602, NSC794443), venetoclax (NSC766270), ceralasertib (NSC777638), bortezomib (NSC756655), olaparib (NSC753686), talazoparib (NSC767125), alisertib (NSC759677), peposertib (NSC802822), gemcitabine (NSC613327), 5-fluorouracil (NSC19893), SN-38 (NSC673596), oxaliplatin (NSC266046), paclitaxel (NSC125973), and doxorubicin (NSC123127), were obtained from the National Cancer Institute (NCI) Developmental Therapeutics Program Chemical Repository. The FDA-approved anticancer drug set is available from the Developmental Therapeutics Program at https://dtp.cancer.gov/organization/dscb/obtaining/available plates.htm. […] The stock solutions were prepared in dimethyl sulfoxide (DMSO, Sigma-Aldrich, St. Louis, MO, cat. D2650), except for the platinum complexes which were prepared in saline (Quality Biological, Gaithersburg, MD, cat. 114-055-101), at 800-fold the tested concentration and stored at -70 degrees C prior to their use. All drugs and investigational agents were tested over a range starting from a high concentration at or near the clinical Cmax and decreasing in half-log increments. If the clinical Cmax for an agent had not been determined, the highest concentration tested was 10 microM.
Cell Culture. All cells were maintained in an incubator at 37 degrees C and 5% CO2 with 95% humidity. The PDC lines were cultured according to standard operating procedures established by the NCI PDMR. Briefly, all PDCs were thawed and cultured in Matrigel-coated flasks prepared with a working solution of 1X Ham's F-12 nutrient mix, without supplementation (Invitrogen, Waltham, MA, cat. 11765054), 100 U/mL penicillin-streptomycin (Invitrogen, cat. 15140122), and 2.5% Matrigel (Corning Inc., Corning, NY, cat. 354248) for the first three passages. The 947758-054-R-J2-PDC line was cultured in 6B/Colon 1A media, which includes advanced DMEM/F-12 (Thermo Fisher Scientific, cat. 12634028), 10 mM HEPES (Thermo Fisher Scientific, cat. 15630080), 1X GlutaMAX supplement (Thermo Fisher Scientific, cat. 35050061), 0.1 mg/mL primocin (InvivoGen, cat. ant-pm-2), 10% defined fetal bovine serum, heat inactivated (HyClone Laboratories Inc., cat. SH30070.03HI), 1.25 mM N-Acetyl-L-cysteine (Sigma-Aldrich, cat. A9165), 10 mM nicotinamide (Sigma-Aldrich, cat. N0636), 1X B-27 supplement (Thermo Fisher Scientific, cat. 17504044), 1X N-2 supplement (Thermo Fisher Scientific, cat. 17502048), and 10 microM Y-27632 dihydrochloride (Tocris Bioscience, cat. 1254). The 876862-298-R-J1-PDC was cultured in 6E media, which includes all 6B/Colon 1A media components plus 50% L-WRN conditioned media (ATCC, cat. CRL-3276), 50 ng/mL recombinant human EGF recombinant protein (hEGF; Thermo Fisher Scientific, cat. PHG0311), 10 ng/mL recombinant human fibroblast growth factor 10 (hGFG-10; PeproTech, cat. 100-26), 1 ng/mL recombinant human fibroblast growth factor 2 (hFGF-2; PeproTech, cat. 100-18B), and 1 µM prostaglandin E2 (PGE2; Tocris, cat. 2296). The 227483-062-R1-J1-PDC line was cultured in Panc media, containing all 6E components except hFGF-2, with the addition of 500 nM SB-431542 (Selleckchem, cat. S1067) and 10 nM gastrin (Tocris, cat. 3006). […]

[1] = second compound 0.0316 µM, first compound 0.0316 µM
[2] = second compound 0.0316 µM, first compound 0.1 µM
[3] = second compound 0.0316 µM, first compound 0.316 µM
[4] = second compound 0.0316 µM, first compound 1 µM
[5] = second compound 0.0316 µM, first compound 3.16 µM
[6] = second compound 0.0316 µM, first compound 10 µM
[7] = second compound 0.1 µM, first compound 0.0316 µM
[8] = second compound 0.1 µM, first compound 0.1 µM
[9] = second compound 0.1 µM, first compound 0.316 µM
[10] = second compound 0.1 µM, first compound 1 µM
[11] = second compound 0.1 µM, first compound 3.16 µM
[12] = second compound 0.1 µM, first compound 10 µM
[13] = second compound 0.316 µM, first compound 0.0316 µM
[14] = second compound 0.316 µM, first compound 0.1 µM
[15] = second compound 0.316 µM, first compound 0.316 µM
[16] = second compound 0.316 µM, first compound 1 µM
[17] = second compound 0.316 µM, first compound 3.16 µM
[18] = second compound 0.316 µM, first compound 10 µM
[19] = second compound 1 µM, first compound 0.0316 µM
[20] = second compound 1 µM, first compound 0.1 µM
[21] = second compound 1 µM, first compound 0.316 µM
[22] = second compound 1 µM, first compound 1 µM
[23] = second compound 1 µM, first compound 3.16 µM
[24] = second compound 1 µM, first compound 10 µM
[25] = second compound 3.16 µM, first compound 0.0316 µM
[26] = second compound 3.16 µM, first compound 0.1 µM
[27] = second compound 3.16 µM, first compound 0.316 µM
[28] = second compound 3.16 µM, first compound 1 µM
[29] = second compound 3.16 µM, first compound 3.16 µM
[30] = second compound 3.16 µM, first compound 10 µM
[31] = second compound 10 µM, first compound 0.0316 µM
[32] = second compound 10 µM, first compound 0.1 µM
[33] = second compound 10 µM, first compound 0.316 µM
[34] = second compound 10 µM, first compound 1 µM
[35] = second compound 10 µM, first compound 3.16 µM
[36] = second compound 10 µM, first compound 10 µM
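Further: spheroids exposed to agents for 7 days.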
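Wherever viability, T/C is given: 100% = DMSO vehicle wells.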

COc1cccc2c1C(=O)c1c(O)c3c(c(O)c1C2=O)CC(O)(C(=O)CO)CC3OC1CC(N)C(O)C(C)O1 (centres undefined) + CNC(=O)c1ccc(Nc2nc(OC3CCCC3)c3c(-c4ccc5nc(C)oc5c4)c[nH]c3n2)c(OC)c1
533 nM: IC50 (second compound 10 µM)
< 31.6 nM: IC50 (second compound 0.316 µM)
inactive: viability, T/C [1] 111% | viability, T/C [2] 72.6% | viability, T/C [3] 54.1% | viability, T/C [4] 34.5% | viability, T/C [5] 1.22% | viability, T/C [7] 53.8% | viability, T/C [8] 57.7% | viability, T/C [9] 42.7% | viability, T/C [10] 35.9% | viability, T/C [13] 55.7% | viability, T/C [14] 47.1% | viability, T/C [15] 46.8% | viability, T/C [16] 42.1% | viability, T/C [19] 49.7% | viability, T/C [20] 61.3% | viability, T/C [21] 75.6% | viability, T/C [22] 30.7% | viability, T/C [25] 61.8% | viability, T/C [26] 66.6% | viability, T/C [27] 81.3% | viability, T/C [28] 28.3% | viability, T/C [31] 58.2% | viability, T/C [32] 56% | viability, T/C [33] 79.7% | viability, T/C [34] 32.4%
548 nM: IC50 (second compound 3.16 µM)
328 nM: IC50 (second compound 0.0316 µM)
340 nM: IC50 (second compound 0.1 µM)
active: viability, T/C [6] 0.82% | viability, T/C [11] 0.57% | viability, T/C [12] 0.99% | viability, T/C [17] 0.32% | viability, T/C [18] 0.17% | viability, T/C [23] 0.2% | viability, T/C [24] 0.17% | viability, T/C [29] 0.16% | viability, T/C [30] 2.18% | viability, T/C [35] 0.24% | viability, T/C [36] 1.24%
494 nM: IC50 (second compound 1 µM)

CC(CO)NC(=O)c1cc(-c2ccc(Cl)cc2)nn(-c2cnn(C)c2)c1=O (centres undefined) + CNC(=O)c1ccc(Nc2nc(OC3CCCC3)c3c(-c4ccc5nc(C)oc5c4)c[nH]c3n2)c(OC)c1
< 31.6 nM: IC50 (second compound 0.316 µM) | IC50 (second compound 1 µM) | IC50 (second compound 3.16 µM) | IC50 (second compound 10 µM)
inactive: viability, T/C [1] 85.1% | viability, T/C [2] 89% | viability, T/C [3] 89.2% | viability, T/C [4] 92.8% | viability, T/C [5] 91.1% | viability, T/C [6] 97.5% | viability, T/C [7] 58.9% | viability, T/C [8] 57.9% | viability, T/C [9] 48.7% | viability, T/C [10] 45.9% | viability, T/C [11] 50.6% | viability, T/C [12] 43.4% | viability, T/C [13] 36.4% | viability, T/C [14] 45.8% | viability, T/C [15] 40.2% | viability, T/C [16] 38.6% | viability, T/C [17] 48% | viability, T/C [18] 40.2% | viability, T/C [19] 43.5% | viability, T/C [20] 46% | viability, T/C [21] 46.3% | viability, T/C [22] 41.8% | viability, T/C [23] 44.2% | viability, T/C [24] 35.3% | viability, T/C [25] 45% | viability, T/C [26] 45.4% | viability, T/C [27] 36.2% | viability, T/C [28] 38.4% | viability, T/C [29] 31.7% | viability, T/C [30] 30.3% | viability, T/C [31] 43.4% | viability, T/C [32] 43.4% | viability, T/C [33] 34.3% | viability, T/C [34] 30.3% | viability, T/C [35] 34.3% | viability, T/C [36] 39.5%
> 10000 nM: IC50 (second compound 0.0316 µM)
487 nM: IC50 (second compound 0.1 µM)

From PubChem BioAssay AID2060610 (Molecular Pharmacology Branch, DTP, NCI, 2025)
